The values below come from patent publication US20240360126A1, “PYRAZOLO[3,4-B]PYRIDINE COMPOUNDS FOR THE TREATMENT OF AUTOIMMUNE DISEASE” (Hoffmann-La Roche Inc., priority 2021, published 2024).

A short description of series [1]: Human microsome stability assay. The format is in vitro ADME. Particulars: 1 μM test compound, 0.5 mg/mL liver microsomal protein, 37° C. How it is done:
The human microsomal stability assay is used for early assessment of metabolic stability of a test compound in human liver microsomes.
Human liver microsomes (Cat. NO.: 452117, Corning, USA; Cat. NO.:H2610, Xenotech, USA) were preincubated with test compound for 10 minutes at 37° C. in 100 mM potassium phosphate buffer, pH 7.4. The reactions were initiated by adding NADPH regenerating system.
The final incubation mixtures contained 1 μM test compound, 0.5 mg/mL liver microsomal protein, 1 mM MgCl2, 1 mM NADP, 1 unit/mL isocitric dehydrogenase and 6 mM isocitric acid in 100 mM potassium phosphate buffer, pH 7.4. After incubation times of 0, 3, 6, 9, 15 and 30 minutes at 37° C., 300 μL of cold acetonitrile (including internal standard) was added to 100 μL incubation mixture to terminate the reaction. Following precipitation and centrifugation, the amount of compound remaining in the samples were determined by LC-MS/MS. Controls of no NADPH regenerating system at zero and 30 minutes were also prepared and analyzed.

In a further series the target is T1, TLR9 (Homo sapiens, UniProt Q9NR96).
T1 sequence (Q9NR96 26-1032): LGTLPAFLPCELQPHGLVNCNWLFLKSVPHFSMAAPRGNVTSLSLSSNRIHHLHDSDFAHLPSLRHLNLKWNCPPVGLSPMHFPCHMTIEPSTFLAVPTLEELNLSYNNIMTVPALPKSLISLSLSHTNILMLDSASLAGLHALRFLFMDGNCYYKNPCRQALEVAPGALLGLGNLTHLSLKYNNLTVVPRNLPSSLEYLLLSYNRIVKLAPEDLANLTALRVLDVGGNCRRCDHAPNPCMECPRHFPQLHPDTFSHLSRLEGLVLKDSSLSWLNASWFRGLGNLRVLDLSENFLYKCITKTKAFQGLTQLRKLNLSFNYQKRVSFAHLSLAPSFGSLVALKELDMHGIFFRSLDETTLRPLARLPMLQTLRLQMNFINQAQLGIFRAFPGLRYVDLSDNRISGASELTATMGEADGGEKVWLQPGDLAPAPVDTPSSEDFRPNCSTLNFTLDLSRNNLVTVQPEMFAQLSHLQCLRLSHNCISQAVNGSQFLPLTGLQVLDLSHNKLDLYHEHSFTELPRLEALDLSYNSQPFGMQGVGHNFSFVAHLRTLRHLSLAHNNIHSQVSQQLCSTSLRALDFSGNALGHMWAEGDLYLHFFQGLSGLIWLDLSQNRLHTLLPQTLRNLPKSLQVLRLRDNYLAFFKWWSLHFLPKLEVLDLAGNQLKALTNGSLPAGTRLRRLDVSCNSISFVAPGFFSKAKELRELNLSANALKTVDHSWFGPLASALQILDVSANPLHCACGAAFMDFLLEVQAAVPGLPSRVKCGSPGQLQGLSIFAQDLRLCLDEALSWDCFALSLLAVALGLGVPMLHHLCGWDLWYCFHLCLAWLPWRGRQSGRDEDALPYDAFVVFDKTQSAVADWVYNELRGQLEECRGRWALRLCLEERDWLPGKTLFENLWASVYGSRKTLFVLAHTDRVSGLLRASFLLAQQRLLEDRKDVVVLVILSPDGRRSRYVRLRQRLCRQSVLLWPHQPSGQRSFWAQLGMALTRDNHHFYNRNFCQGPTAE
Briefly: HEK293-Blue-hTLR-9 cells assay. The format is cell-based. Set-up: host or cells: HEK293 (HEK-Blue hTLR9). Particulars: HEK293-Blue-hTLR9 cells, ODN2006 stimulation, 20 hrs; read-out: HEK/hTLR9 IC50. The text has this: A stable HEK293-Blue-hTLR-9 cell line was purchased from InvivoGen (Cat. #: hkb-htlr9, San Diego, California, USA). These cells were originally designed for studying the stimulation of human TLR9 by monitoring the activation of NF-κB. A SEAP (secreted embryonic alkaline phosphatase) reporter gene was placed under the control of the IFN-β minimal promoter fused to five NF-κB and AP-1-binding sites. The SEAP was induced by activating NF-κB and AP-1 via stimulating HEK-Blue hTLR9 cells with TLR9 ligands. Therefore the reporter expression was declined by TLR9 antagonist under the stimulation of a ligand, such as ODN2006 (Cat. #: tlrl-2006-1, Invivogen, San Diego, California, USA), for incubation of 20 hrs. The cell culture supernatant SEAP reporter activity was determined using QiANTI-Blue™ kit (Cat. #: rep-qbl, Invivogen, San Diego, California, USA) at a wavelength of 640 nm, a detection medium that turns purple or blue in the presence of alkaline phosphatase.
HEK293-Blue-hTLR9 cells were incubated at a density of 250,000-450,000 cells/mL in a volume of 170 μL in a 96-well plate in Dulbecco's Modified Eagle's medium (DMEM) containing 4.5 g/L glucose, 50 U/mL penicillin, […], […], 10% (v/v) heat-inactivated fetal bovine serum with addition of 20 μL test compound in a serial dilution in the presence of final DMSO at 1% and 10 μL of 20 μM ODN2006 in above DMEM, perform incubation under 37° C. in a C02 incubator for 20 hrs. Then 20 μL of the supernatant from each well was incubated with 180 μl. Quanti-blue substrate solution at 37° C. for 2 h and the absorbance was read at 620˜655 nm using a spectrophotometer. The signaling pathway that TLR9 activation leads to downstream NF-κB activation has been widely accepted, and therefore similar reporter assay was modified for evaluating TLR9 antagonist.

For the molecule `Cc1cc(N2CCC(c3cnc(N4CCNCC4)cc3C)[C@H](C)C2)c2cnn(C)c2n1` (single isomer, unassigned) [Example 20, 1,6-dimethyl-4-[cis-3-methyl-4-(4-methyl-6-piperazin-1-yl-3-pyridyl)-1-piperidyl]pyrazolo[3,4-b]pyridine], the “Clearance of Human microsome” value in series [1] is given as 9.0 mL/min/kg. Besides, at TLR9, the IC50 was determined as 220 nM. For `Cc1cc(N2CCC(c3cnc(N4CCNCC4)cc3C)[C@H](C)C2)c2cnn(C)c2n1` (single isomer, unassigned) [Example 21, 1,6-dimethyl-4-[trans-3-methyl-4-(4-methyl-6-piperazin-1-yl-3-pyridyl)-1-piperidyl]pyrazolo[3,4-b]pyridine] the same measures were 7.8 mL/min/kg and 372 nM.

With `Cc1cc(N2CCC(c3ncc(N4CCNCC4)nc3C)[C@H](C)C2)c2cnn(C)c2n1` (single isomer, unassigned) [Example 22, 1,6-dimethyl-4-[cis-3-methyl-4-(3-methyl-5-piperazin-1-yl-pyrazin-2-yl)-1-piperidyl]pyrazolo[3,4-b]pyridine], the IC50 on TLR9 was determined as 315 nM. `Cc1cc(N2CCC(c3ncc(N4CCNCC4)nc3C)[C@H](C)C2)c2cnn(C)c2n1` (single isomer, unassigned) [Example 23, 1,6-dimethyl-4-[trans-3-methyl-4-(3-methyl-5-piperazin-1-yl-pyrazin-2-yl)-1-piperidyl]pyrazolo[3,4-b]pyridine]: on TLR9, the IC50 was 368 nM. With `Cc1cc(N2CCC(c3ncc(N4CCNCC4)cc3C)[C@H](C)C2)c2cnn(C)c2n1` (single isomer, unassigned) [Example 24, 1,6-dimethyl-4-[cis-3-methyl-4-(3-methyl-5-piperazin-1-yl-2-pyridyl)-1-piperidyl]pyrazolo[3,4-b]pyridine], the IC50 at TLR9 is 76 nM. Turning to `Cc1cc(N2CCC(c3ncc(N4CCNCC4)cc3C)[C@H](C)C2)c2cnn(C)c2n1` (single isomer, unassigned) [Example 25, 1,6-dimethyl-4-[trans-3-methyl-4-(3-methyl-5-piperazin-1-yl-2-pyridyl)-1-piperidyl]pyrazolo[3,4-b]pyridine], the IC50 on TLR9 worked out at 98 nM. As for `Cc1cc(N2CCC(c3ccc(N4CCNCC4)cc3)CC2)c2cnn(C)c2n1` [Example 1, 1,6-dimethyl-4-[4-(4-piperazin-1-ylphenyl)-1-piperidyl]pyrazolo[3,4-b]pyridine], on TLR9, the IC50 was determined as 275 nM.

As to `Cc1cc(N2CCC(c3ccc(N4CCNCC4)cn3)CC2)c2cnn(C)c2n1` [Example 2, 1,6-dimethyl-4-[4-(5-piperazin-1-yl-2-pyridyl)-1-piperidyl]pyrazolo[3,4-b]pyridine], the “Clearance of Human microsome” value in series [1] came out at 8.2 mL/min/kg. Besides, on TLR9, the IC50 was 142 nM.

Regarding `Cc1cc(N2CCC(c3ncc(N4CCNCC4)cn3)CC2)c2cnn(C)c2n1` [Example 4, 1,6-dimethyl-4-[4-(5-piperazin-1-ylpyrimidin-2-yl)-1-piperidyl]pyrazolo[3,4-b]pyridine], on TLR9, the IC50 stood at 379 nM. Still for that read-out and setting: then `Cc1cc(N2CCC(c3cnc(N4CCNCC4)cc3C)CC2)c2cnn(C)c2n1` [Example 8, 1,6-dimethyl-4-[4-(4-methyl-6-piperazin-1-yl-3-pyridyl)-1-piperidyl]pyrazolo[3,4-b]pyridine], with 195 nM.

Turning to `Cc1cc(N2CCC(c3cc(C)c(N4CCNCC4)cn3)CC2)c2cnn(C)c2n1` [Example 9, 1,6-dimethyl-4-[4-(4-methyl-5-piperazin-1-yl-2-pyridyl)-1-piperidyl]pyrazolo[3,4-b]pyridine], the IC50 on TLR9 was found to be 120 nM. Regarding `Cc1cc(N2CCC(c3ccc(N4CCNCC4)nc3C)CC2)c2cnn(C)c2n1` [Example 10, 1,6-dimethyl-4-[4-(2-methyl-6-piperazin-1-yl-3-pyridyl)-1-piperidyl]pyrazolo[3,4-b]pyridine], on TLR9, the IC50 stood at 212 nM.

Consider `Cc1cc(N2CCC(c3cnc(N4CCNCC4)nc3C)CC2)c2cnn(C)c2n1` [Example 11, 1,6-dimethyl-4-[4-(4-methyl-2-piperazin-1-yl-pyrimidin-5-yl)-1-piperidyl]pyrazolo[3,4-b]pyridine], for which the IC50 at TLR9 was found to be 104 nM.

`Cc1cc(N2CCC(c3ncc(N4CC[C@@H](N)[C@@H](F)C4)cc3C)CC2)c2cnn(C)c2n1` [Example 15, (3S,4R)-1-[6-[1-(1,6-dimethylpyrazolo[3,4-b]pyridin-4-yl)-4-piperidyl]-5-methyl-3-pyridyl]-3-fluoro-piperidin-4-amine]: on TLR9, the IC50 came out at 130 nM.

In the case of `COC[C@H]1CN(c2cnc(C3CCN(c4cc(C)nc5c4cnn5C)CC3)c(C)c2)CCN1` [Example 16, 4-[4-[5-[(3R)-3-(methoxymethyl)piperazin-1-yl]-3-methyl-2-pyridyl]-1-piperidyl]-1,6-dimethyl-pyrazolo[3,4-b]pyridine], the IC50 at TLR9 stood at 143 nM.

Regarding `CO[C@H]1CN(c2cnc(C3CCN(c4cc(C)nc5c4cnn5C)CC3)c(C)c2)CC[C@@H]1N` [Example 17, (3S,4S)-1-[6-[1-(1,6-dimethylpyrazolo[3,4-b]pyridin-4-yl)-4-piperidyl]-5-methyl-3-pyridyl]-3-methoxy-piperidin-4-amine], the IC50 on TLR9 amounted to 73 nM. With `CO[C@@H]1CN(c2cnc([C@@H]3CCN(c4cc(C)nc5c4cnn5C)C[C@H]3C)c(C)c2)C[C@H]1N` [Example 26, (3R,4R)-1-[6-[(3S,4R)-1-(1,6-dimethylpyrazolo[3,4-b]pyridin-4-yl)-3-methyl-4-piperidyl]-5-methyl-3-pyridyl]-4-methoxy-pyrrolidin-3-amine], the IC50 at TLR9 turned out to be 109 nM.

For `Cc1cc(N2CC[C@@H](c3ncc(N4CC[C@@H](N)[C@H](F)C4)cc3C)[C@H](C)C2)c2cnn(C)c2n1` [Example 31, (3R,4R)-1-[6-[(3S,4R)-1-(1,6-dimethylpyrazolo[3,4-b]pyridin-4-yl)-3-methyl-4-piperidyl]-5-methyl-3-pyridyl]-3-fluoro-piperidin-4-amine], the IC50 on TLR9 was 219 nM. Regarding `CO[C@@H]1CN(c2ccc([C@H]3CCN(c4cc(C)nc5c4cnn5C)C[C@@H]3C)nc2)C[C@H]1N` [Example 36, (3R,4R)-1-[6-[(3R,4S)-1-(1,6-dimethylpyrazolo[3,4-b]pyridin-4-yl)-3-methyl-4-piperidyl]-3-pyridyl]-4-methoxy-pyrrolidin-3-amine], the IC50 on TLR9 was 170 nM.
